Here are results for one sequence from patent US20090305994A1, “Compounds Modulating Vegf Receptor and Uses Thereof” (priority 2005, published 2009).

The test system of experiment [1] is ERK1/2. The experiment can be described thus: ERK1/2 activation in BAEC (western blot). It is filed as cell-based, bovine. As to the method: Effect of QK and VEGF15 on ERK1/2 activation. Serum deprived BAEC were treated with QK (a) or with VEGF 15 (b) in absence or in presence of VEGF165 (100 ng/ml) for 15 minutes at 37° C. and then dissolved in RIPA-SDS buffer. Total ERK1/2 and the phosphorylated form of ERK1/2 were visualized by specific antibodies.
Western blot. Cells were plated on six-well dishes and serum starved overnight. On the next day, cells were treated with different amount of peptide in absence or in presence of VEGF165 for 15 minutes at 37° C. and then dissolved in RIPA-SDS buffer (50 mM Tris-HCl (pH 7.5), 150 mM NaCl, 1% NP-40, 0.25% deoxycholate, 9.4 mg/50 ml sodium orthovanadate, […]). In some experiments, total KDR and Flt-1 were immunoprecipitated from an equal amount of whole-cell protein extracts using protein A/G agarose beads conjugated with antibodies raised against total KDR or Flt-1 (R&D). Proteins from whole-cell extracts or immunocomplexes were resolved by PAGE and transferred to nitrocellulose. Total extracellular signal-regulated kinase 1 and 2 (ERK1/2), serine-tyrosin phosphorylated ERK1/2, phospho-tyrosine (Cell signaling) and phospho-RB (p-RB) (Santacruz) were visualized by specific antibodies, anti-rabbit HRP-conjugated secondary antibody (Santacruz) and standard chemiluminescence (Pierce).
Activation of the proliferative intracellular pathways. We then explored whether QK is able to start the pathways of endothelial cell activation. It is well established that angiogenesis modulate by VEGF is largely ERK1/2 dependent, leading to DNA synthesis and cell proliferation (7). Accordingly, we assessed the effects of QK on this kinase. […] To verify whether ERK1/2 activation to QK results in cell proliferation, we studied cell proliferation indicators such as cell number, DNA synthesis and cyclin activation.
Background: Immunoblotting shows a protein as a band on a membrane.

Experiment [2] has as its system BAEC. Kind of experiment: [3H]-thymidine incorporation (DNA synthesis). Type of experiment: cell-based, bovine. The following applies: 24 hours. On the procedure:
(§1) Effect of QK on cell proliferation. a) DNA synthesis. BAEC were incubated in DMEM with [^3H]-thymidine and QK in absence or in presence of VEGF165 (100 ng/ml). After 24 hours cells were fixed and lysed. Scintillation liquid was added and [^3H]-thymidine incorporation was evaluated. b) Cell proliferation. BAEC were stimulated with the indicated amount of QK in absence or in presence of VEGF165 (100 ng/ml). Cell number was determined at 24 hours after stimulation. c) RB phosphorylation. p-RB was evaluated at 12 and 18 hours after stimulation with QK (10^-6M), VEGF165 (100 ng/ml) and VEGF 15 (10^−6 M).
[^3H]-thymidine incorporation. Cells were serum starved for 24 hours and then incubated in DMEM with [^3H]-thymidine (Amersham) and QK alone (10^−12-10^−6 M) or with a combination of QK and VEGF165. After 24 hours cells were fixed with trichloracetic acid ([…]) and dissolved in NaOH 1M. Scintillation liquid was added and thymidine incorporation was evaluated with a beta counter.
Background: Uptake of a labelled nucleoside into DNA is a usual measure of proliferation.

Experiment [3] deals with BAEC. Kind of experiment: Cells proliferation assay (cell number). It is filed as cell-based, bovine. The following applies: 24 hours. On the procedure:
as §1
Cells proliferation assay. Cells were seeded at a density of 10000 per well in six well plates, serum starved overnight and then stimulated with QK (10-12 to 10^−6 M) in absence or in presence of VEGF165. Cell number was determined at 24 hours after stimulation. The p-RB, was evaluated by western blot 12 and 18 hours after stimulation with QK (10^−6 M), VEGF165 and VEGF 15 (10^−6 M).

Experiment [4] has as its system WKY rats. Kind of experiment: Implanted Matrigel model in rats. It is filed as in vivo, rat. The following applies: subcutaneous plug, one week. On the procedure: Implanted Matrigel Model in rats. Each animals was subcutaneously injected with 1 mL Matrigel Matrix High (18-22 mg/mL; Becton Dickinson, Franklin Lakes, N.J.) containing QK, VEGF 15, VEGF 165 (10^-6 M) or saline solution on the back. One week later, Matrigel plugs were removed and fixed in 4% buffered formaldehyde in PBS for histologic analysis using Masson trichrome staining. The capillary-occupied area per field of view from 15 to 20 fields in tissue sections was measured using a computerized digital camera system (Olympus, Melville, N.Y.) and NIH Image 1.61 (NIH, Bethesda, Md.).
We evaluated the proangiogenic effects of QK in vivo using a subcutaneous injection of Matrigel Matrix High (BD Technologies) […] (VEGF 15 10^-7 M), in anesthetized twelve-week-old WKY rats. After one week the plugs were removed and analyzed in gross morphology and capillaries infiltration by CD31/vWF immunostaining. […] After 14 days animals were anesthetized and hindlimbs blood flow (BF) assessed by digital angiographies counting the TIMI Frame score (TFC) needs to the contrast to arrive at the artery dorsal paw (FIG. 5a). BF was also evaluated by dyed beads dilution through injection in abdominal aorta of yellow beads ([…]) (FIG. 5b). By histology on the ischemic and non ischemic anterior tibial muscle, we evaluated capillary density.

Experiment [5] concerns WKY rats. Kind of experiment: Ischemic hindlimb model, digital angiographies and blood flow determination. It is filed as in vivo, rat. The following applies: 14 days.

For KLTWQELYQLKYKGI [QK], the “ERK1/2 activation in presence of VEGF” value in experiment [1] (BAEC, with VEGF165 100 ng/ml, 15 minutes) is given as “additive to VEGF”. Moreover, in experiment [1] (serum deprived BAEC, 15 minutes at 37° C.), the ERK1/2 activation result is given as “leaded to ERK1/2 activation in a dose dependent fashion”. In experiment [2] (peptide alone), the “DNA synthesis ([3H]-thymidine incorporation)” value is listed as “increased DNA synthesis at any dosages”. Further, the “DNA synthesis in presence of VEGF” value in experiment [2] (with VEGF165 100 ng/ml) is reported as “the effect was enhanced in presence of VEGF”. In addition, the “cell proliferation (cell number)” value in experiment [3] (peptide alone) is “produces cell proliferation per se”. Further, in experiment [3] (with VEGF165 100 ng/ml), the “cell proliferation in presence of VEGF” value is “enhances VEGF response”. Besides, the “Matrigel plug gross morphology (macroscopic inspection)” value in experiment [4] was “contained blood”. Besides, in experiment [4] (versus VEGF 15 plugs), the “peripheral capillaries infiltration of Matrigel plugs” value is given as “greater peripheral capillaries infiltration”. Further, in experiment [5] (dyed beads dilution, muscle ratio, infusion 10^-7 M), the “BEADS Ischemic to non ischemic” value is listed as 0.98 ± 0.12. Moreover, the “ANGIOGRAPHY Number of TFC” value in experiment [5] (ischemic hindlimb, chronic intrafemoral artery infusion 10^-7 M) was found to be 16 ± 2.
